Measurements reported in US20250382332A1, “NOVEL ALPHA-FACTOR BASED PEPTIDES WITH ANTIFUNGAL ACTIVITY” (INVAIO SCIENCES, INC., priority 2024, published 2025).
Peptide text beside a SMILES is read from it.

Test system: Botrytis cinerea (B05.10)
Assay: Resazurin antifungal assay of 180 alpha-factor peptide variants towards Botrytis (Example 2)
Format: cell-based
Set-up: key to active against Botrytis at 15 μM / active against Botrytis at 10 μM: Peptides that showed greater than 90% inhibition were considered active against Botrytis
Details: for Inhibition at 10 μM / Inhibition at 15 μM / Inhibition at 20 μM / Inhibition at 50 μM / Inhibition at 100 μM: % inhibition of fungal growth, Botrytis conidia, resazurin; for Inhibition at 10 μM: peptide 10 μM; for Inhibition at 15 μM / active against Botrytis at 15 μM: peptide 15 μM; for Inhibition at 20 μM: peptide 20 μM; for Inhibition at 50 μM: peptide 50 μM; for Inhibition at 100 μM: peptide 100 μM
Description: The antifungal activity of 180 alpha-factor peptide variants towards Botrytis was tested. Experimental design:
Peptides corresponding to SEQ ID NO: 1-180 were chemically synthesized using the solid-phase synthesis method and resuspended in water to a stock solution of 1 mM. The stock solution was aliquoted in cryovials and stored at −80° C.
The Botrytis cinerea culture (B05.10) isolate was acquired from the Centraalbureau voor Schimmelcultures, the Netherlands. The Botrytis fungus was propagated on 0.5% V8 agar plates (200 ml V8 Juice, 3 g CaCO3, 15 g agar, 800-ml millipore water) at 20° C., in a 12 h photoperiod for 21 days.
Fungal conidia were harvested by scraping a Botrytis plate flooded with 1 ml water with 0.1% Tween 80 solution. Conidia were then collected in a 50 ml falcon tube by passing the solution through a 40 micron filter. The solution was then centrifuged at 6000 rpm and the pellet was resuspended in 1 ml of 20% glycerol. The conidia concentration of the resulting solution was counted using a hemocytometer. The stock was diluted to […] using 20% glycerol and frozen in 100 μl aliquots in −80° C. until further use.
Peptides were tested for activity against Botrytis, using the resazurin assay. For this, fungal stock conidia was first diluted to 5000 conidia/well. 50 μl of the spore suspension was added to each well of the sterile 96-well clear bottom testing plate and mixed with 50 μl of peptide solutions to a final concentration of 100, 50, 20, 15 and 10 μM. The plate was incubated for 24 h at 20° C. After 24 h, 10 μl of resazurin dye was added to the microtiter plate and incubated again for […]. Fluorescence was measured at 570/620 nm after 4 h of incubation with resazurin.
Growth inhibition was calculated by subtracting the fluorescence values of conidia only wells from sample wells and depicted as % inhibition of fungal growth. Four technical replicates were used for all treatments.

Row | SMILES | Inhibition at 10 μM [%] | Inhibition at 15 μM [%] | Inhibition at 20 μM [%] | Inhibition at 50 μM [%] | Inhibition at 100 μM [%] | active against Botrytis at 15 μM
1 | CSCC[C@H](NC(=O)[C@@H]1CCCN1C(=O)[C@H](CCC(N)=O)NC(=O)CNC(=O)[C@@H]1CCCN1C(=O)[C@H](CCCCN)NC(=O)[C@H](Cc1ccccc1)NC(=O)[C@H](CCCNC(=N)N)NC(=O)[C@H](CC(C)C)NC(=O)[C@@H](NC(=O)[C@H](Cc1c[nH]cn1)NC(=O)[C@@H](N)CCCCN)C(C)C)C(=O)N[C@@H](Cc1ccc(O)cc1)C(=O)O [compound 12] (H-KHVLRFKPGQPMY-OH; N-terminus and C-terminus assumed) | <90 | 98.79 | 99.94 | 100 | 100 | active
2 | CSCC[C@H](NC(=O)[C@@H]1CCCN1C(=O)[C@H](CCC(N)=O)NC(=O)CNC(=O)[C@@H]1CCCN1C(=O)[C@H](CCCCN)NC(=O)[C@H](Cc1ccccc1)NC(=O)[C@H](CCCCN)NC(=O)[C@H](CC(C)C)NC(=O)[C@H](Cc1c[nH]c2ccccc12)NC(=O)[C@H](Cc1c[nH]cn1)NC(=O)[C@@H](N)CCCCN)C(=O)N[C@@H](Cc1ccc(O)cc1)C(=O)O [compound 13] (H-KHWLKFKPGQPMY-OH; N-terminus and C-terminus assumed) | <90 | 100 | 100 | 100 | 100 | active
3 | CSCC[C@H](NC(=O)[C@@H]1CCCN1C(=O)[C@H](CCC(N)=O)NC(=O)CNC(=O)[C@@H]1CCCN1C(=O)[C@H](Cc1c[nH]c2ccccc12)NC(=O)[C@H](CC(C)C)NC(=O)[C@H](CCCCN)NC(=O)[C@H](CC(C)C)NC(=O)[C@H](Cc1c[nH]c2ccccc12)NC(=O)[C@H](Cc1c[nH]cn1)NC(=O)[C@@H](N)CCCCN)C(=O)N[C@@H](Cc1ccc(O)cc1)C(=O)O [compound 14] (H-KHWLKLWPGQPMY-OH; N-terminus and C-terminus assumed) | <90 |  | <90 | 100 | 100 | 
4 | CC[C@H](C)[C@H](NC(=O)[C@H](CCCCN)NC(=O)[C@H](CC(C)C)NC(=O)[C@@H](NC(=O)[C@H](Cc1c[nH]cn1)NC(=O)[C@@H](N)Cc1c[nH]c2ccccc12)[C@@H](C)O)C(=O)N[C@@H](CCCCN)C(=O)N[C@@H](CCCCN)C(=O)NCC(=O)N[C@@H](CCC(=O)O)C(=O)N1CCC[C@H]1C(=O)N[C@@H](CCSC)C(=O)N[C@@H](Cc1ccc(O)cc1)C(=O)O [compound 15] (H-WHTLKIKKGEPMY-OH; N-terminus and C-terminus assumed) | <90 |  | <90 | 100 | 100 | 
5 | CSCC[C@H](NC(=O)CNC(=O)[C@H](CCC(N)=O)NC(=O)CNC(=O)[C@@H](NC(=O)[C@H](CCCCN)NC(=O)[C@H](Cc1ccccc1)NC(=O)[C@@H](NC(=O)[C@H](CC(C)C)NC(=O)[C@H](Cc1c[nH]c2ccccc12)NC(=O)[C@H](Cc1c[nH]cn1)NC(=O)[C@@H](N)Cc1c[nH]c2ccccc12)[C@@H](C)O)[C@@H](C)O)C(=O)N[C@@H](Cc1ccc(O)cc1)C(=O)O [compound 16] (H-WHWLTFKTGQGMY-OH; N-terminus and C-terminus assumed) | <90 |  | <90 | 100 | 100 | 
6 | CSCC[C@H](NC(=O)[C@@H]1CCCN1C(=O)[C@H](CCC(N)=O)NC(=O)CNC(=O)[C@@H]1CCCN1C(=O)[C@H](Cc1c[nH]c2ccccc12)NC(=O)[C@H](CC(C)C)NC(=O)[C@H](CCCCN)NC(=O)[C@H](CC(C)C)NC(=O)[C@H](Cc1ccccc1)NC(=O)[C@H](Cc1c[nH]cn1)NC(=O)[C@@H](N)CCCCN)C(=O)N[C@@H](Cc1ccc(O)cc1)C(=O)O [compound 17] (H-KHFLKLWPGQPMY-OH; N-terminus and C-terminus assumed) | <90 |  | <90 | 100 | 100 | 
7 | CSCC[C@H](NC(=O)[C@@H]1CCCN1C(=O)[C@H](CCC(N)=O)NC(=O)CNC(=O)[C@@H]1CCCN1C(=O)[C@H](CCCCN)NC(=O)[C@H](Cc1ccccc1)NC(=O)[C@H](CCCNC(=N)N)NC(=O)[C@H](CC(C)C)NC(=O)[C@H](Cc1ccccc1)NC(=O)[C@H](Cc1c[nH]cn1)NC(=O)[C@@H](N)CCCCN)C(=O)N[C@@H](Cc1ccc(O)cc1)C(=O)O [compound 18] (H-KHFLRFKPGQPMY-OH; N-terminus and C-terminus assumed) | <90 | 94.03 | 99.67 | 100 | 100 | active
8 | CC[C@H](C)[C@H](NC(=O)[C@H](Cc1c[nH]c2ccccc12)NC(=O)[C@H](CCCCN)NC(=O)[C@@H]1CCCN1)C(=O)N[C@@H](CCCNC(=N)N)C(=O)N[C@@H](CC(C)C)C(=O)N[C@@H](CCCCN)C(=O)N1CCC[C@H]1C(=O)NCC(=O)N[C@@H](CCC(N)=O)C(=O)N1CCC[C@H]1C(=O)N[C@@H](CCSC)C(=O)N[C@@H](Cc1ccc(O)cc1)C(=O)O [compound 19] (H-PKWIRLKPGQPMY-OH; N-terminus and C-terminus assumed) | <90 |  | <90 | 100 | 100 | 
9 | CSCC[C@H](NC(=O)[C@@H]1CCCN1C(=O)[C@H](CCC(N)=O)NC(=O)CNC(=O)[C@@H]1CCCN1C(=O)[C@H](CCCCN)NC(=O)[C@H](Cc1ccccc1)NC(=O)[C@H](CO)NC(=O)[C@H](CC(C)C)NC(=O)[C@H](Cc1c[nH]c2ccccc12)NC(=O)[C@H](Cc1c[nH]cn1)NC(=O)[C@@H](N)CCCCN)C(=O)N[C@@H](Cc1ccc(O)cc1)C(=O)O [compound 20] (H-KHWLSFKPGQPMY-OH; N-terminus and C-terminus assumed) | <90 |  | <90 | 100 | 100 | 
10 | CSCC[C@H](NC(=O)[C@H](CC(C)C)NC(=O)[C@H](CCC(N)=O)NC(=O)[C@@H](NC(=O)[C@H](Cc1c[nH]c2ccccc12)NC(=O)[C@H](Cc1c[nH]cn1)NC(=O)[C@@H](N)CCCCN)C(C)C)C(=O)N[C@@H](CCCCN)C(=O)NCC(=O)N[C@@H](CCC(N)=O)C(=O)N1CCC[C@H]1C(=O)N[C@@H](CCSC)C(=O)N[C@@H](Cc1ccc(O)cc1)C(=O)O [compound 21] (H-KHWVQLMKGQPMY-OH; N-terminus and C-terminus assumed) | <90 |  | <90 | 100 | 100 | 
11 | CSCC[C@H](NC(=O)[C@H](CCCCN)NC(=O)[C@H](Cc1ccccc1)NC(=O)[C@H](CCC(N)=O)NC(=O)[C@@H](NC(=O)[C@H](CC(C)C)NC(=O)[C@H](Cc1c[nH]cn1)NC(=O)[C@@H](N)CCCCN)C(C)C)C(=O)NCC(=O)N[C@@H](CCC(N)=O)C(=O)N1CCC[C@H]1C(=O)N[C@@H](CCSC)C(=O)N[C@@H](Cc1ccc(O)cc1)C(=O)O [compound 22] (H-KHLVQFKMGQPMY-OH; N-terminus and C-terminus assumed) | <90 |  | <90 | 100 | 100 | 
12 | CSCC[C@H](NC(=O)CNC(=O)[C@H](CCC(N)=O)NC(=O)CNC(=O)[C@H](CC(N)=O)NC(=O)[C@H](CCCCN)NC(=O)[C@H](CC(C)C)NC(=O)[C@H](C)NC(=O)[C@@H](NC(=O)[C@H](Cc1c[nH]c2ccccc12)NC(=O)[C@H](Cc1c[nH]cn1)NC(=O)[C@@H](N)Cc1c[nH]c2ccccc12)C(C)C)C(=O)N[C@@H](Cc1ccc(O)cc1)C(=O)O [compound 23] (H-WHWVALKNGQGMY-OH; N-terminus and C-terminus assumed) | <90 |  | <90 | 98.68 | 100 | 
13 | CSCC[C@H](NC(=O)[C@@H]1CCCN1C(=O)[C@H](CCC(N)=O)NC(=O)CNC(=O)[C@@H]1CCCN1C(=O)[C@H](CCCCN)NC(=O)[C@H](Cc1ccccc1)NC(=O)[C@H](CC(N)=O)NC(=O)[C@H](CC(C)C)NC(=O)[C@H](Cc1ccc(O)cc1)NC(=O)[C@H](Cc1c[nH]cn1)NC(=O)[C@@H](N)CCCCN)C(=O)N[C@@H](Cc1ccc(O)cc1)C(=O)O [compound 24] (H-KHYLNFKPGQPMY-OH; N-terminus and C-terminus assumed) | <90 |  | <90 | 96.95 | 100 | 
